Test results as given in patent US20110224136A1, “INHIBITORS OF DIACYLGLYCEROL ACYLTRANSFERASE” (priority 2008, published 2011).

Target: T1, human DGAT1 enzyme (Homo sapiens, UniProt O75907)
T1 construct: made in house; host or cells: Sf9 insect cells (microsomes)
T1 sequence (O75907 1-488): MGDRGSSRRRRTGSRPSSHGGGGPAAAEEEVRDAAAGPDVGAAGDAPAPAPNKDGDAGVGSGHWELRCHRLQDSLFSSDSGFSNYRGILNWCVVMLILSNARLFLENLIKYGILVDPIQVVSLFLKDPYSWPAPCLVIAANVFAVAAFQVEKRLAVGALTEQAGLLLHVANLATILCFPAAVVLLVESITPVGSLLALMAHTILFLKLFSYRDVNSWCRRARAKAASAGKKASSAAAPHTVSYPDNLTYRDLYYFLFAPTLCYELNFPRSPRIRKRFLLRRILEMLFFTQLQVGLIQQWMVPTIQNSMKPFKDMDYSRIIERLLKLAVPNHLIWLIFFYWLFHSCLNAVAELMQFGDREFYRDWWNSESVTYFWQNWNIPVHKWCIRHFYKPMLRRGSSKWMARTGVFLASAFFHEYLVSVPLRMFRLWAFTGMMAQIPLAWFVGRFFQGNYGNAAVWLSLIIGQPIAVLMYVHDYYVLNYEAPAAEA
Assay: in vitro DGAT1 inhibition assay (microsomes, [14C]-palmitoyl-CoA, scintillation proximity)
Type: biochemical
Conditions: human DGAT1 expressed in Sf9 insect cell microsomes; 2 hours at room temperature; read-out: hDGAT IC50
Protocol: A useful assay to determine the DGAT inhibitory activity of the inventive compounds is described below:
The in vitro assay to identify DGAT1 inhibitors uses human DGAT1 enzyme expressed in Sf9 insect cells prepared as microsomes. The reaction is initiated by the addition of the combined substrates 1,2-dioleoyl-sn-glycerol and [^14C]-palmitoyl-CoA and incubated with test compounds and microsomal membranes for 2 hours at room temperature. The assay is stopped by adding 0.5 mg wheat germ agglutinin beads in assay buffer with 1% Brij-35 and 1% 3-cholamidopropyldimethyl-ammonio-1-propane sulfonate. Plates are sealed with TopSeal and incubated for 18 hours to allow the radioactive triglyceride product to come into proximity with the bead. Plates are read on a TopCount instrument.
Percent inhibition was calculated as the percent of (test compound inhibition minus non-specific binding) relative to (total binding minus non-specific binding). IC50 values were determined by curve fitting the data to a Sigmoidal dose-response in GraphPad Prism utilizing the following equation:
Y=A+(B−A)/(1+10̂((Log IC50−X))),
where A and B are the bottom and top of the curve (highest and lowest inhibition), respectively, and X is the logarithm of concentration.

Row | IC50 [nM] | SMILES
1 | 101 to 500 | O=C(Nc1ccc(N[C@H]2CCN(C(=O)Nc3ccccc3F)C2)nc1)c1sc(N2CCC(c3ccccc3)CC2)nc1C(F)(F)F [Compound 259, (S)—N-(6-(1-(2-fluorophenylcarbamoyl)pyrrolidin-3-ylamino)pyridin-3-yl)-2-(4-phenylpiperidin-1-yl)-4-(trifluoromethyl)thiazole-5-carboxamide]
2 | 101 to 500 | O=C(Nc1ccc(N[C@H]2CCN(C(=O)Nc3ccccc3F)C2)nc1)c1oc(N2CCC(c3ccccc3)CC2)nc1C(F)(F)F [Compound 257, (S)—N-(6-(1-(2-fluorophenylcarbamoyl)pyrrolidin-3-ylamino)pyridin-3-yl)-2-(4-phenylpiperidin-1-yl)-4-(trifluoromethyl)oxazole-5-carboxamide]
3 | 11 to 100 | O=C(Nc1ccc(N2CCN(C(=O)Nc3ccccc3F)CC2)nc1)c1oc(N2CCCCCC2)nc1C(F)(F)F [Compound 334, 2-(azepan-1-yl)-N-(6-(4-(2-fluorophenylcarbamoyl)piperazin-1-yl)pyridin-3-yl)-4-(trifluoromethyl)oxazole-5-carboxamide]
4 | 101 to 500 | O=C(Nc1ccc(N2CCN(C(=O)Nc3ccccc3F)CC2)nc1)c1oc(N2CCC(F)(c3ccccc3)CC2)nc1C(F)(F)F [Compound 325, N-(6-(4-(2-fluorophenylcarbamoyl)piperazin-1-yl)pyridin-3-yl)-2-(4-fluoro-4-phenylpiperidin-1-yl)-4-(trifluoromethyl)oxazole-5-carboxamide]
5 | 11 to 100 | O=C(Nc1ccc(N2CCN(C(=O)Nc3ccccc3F)CC2)nc1)c1oc(N2CCc3ccccc3C2)nc1C(F)(F)F [Compound 335, 2-(3,4-dihydroisoquinolin-2(1H)-yl)-N-(6-(4-(2-fluorophenylcarbamoyl)-piperazin-1-yl)pyridin-3-yl)-4-(trifluoromethyl)oxazole-5-carboxamide]
6 | 11 to 100 | O=C(Nc1ccc(N2CCN(C(=O)Nc3ccccc3F)CC2)nc1)c1oc(N2CCC(c3ccc(Cl)cc3)CC2)nc1C(F)(F)F [Compound 273, 2-(4-(4-chlorophenyl)piperidin-1-yl)-N-(6-(4-(2-fluorophenylcarbamoyl)piperazin-1-yl)pyridin-3-yl)-4-(trifluoromethyl)oxazole-5-carboxamide]
7 | 11 to 100 | Cc1ccccc1NC(=O)c1ccc(-c2ccc(NC(=O)c3oc(N4CCCC(C)C4)nc3C(F)(F)F)nc2)cc1 (centres unmarked) [Compound 227, 2-(3-methylpiperidin-1-yl)-N-(5-(4-(o-tolylcarbamoyl)phenyl)pyridin-2-yl)-4-(trifluoromethyl)oxazole-5-carboxamide]
8 | 11 to 100 | Cc1ccccc1NC(=O)c1ccc(-c2ccc(NC(=O)c3oc(N4CCCC(C)C4)nc3C(F)(F)F)cc2)cn1 (centres unmarked) [Compound 232, 2-(3-methylpiperidin-1-yl)-N-(4-(6-(o-tolylcarbamoyl)pyridin-3-yl)phenyl)-4-(trifluoromethyl)oxazole-5-carboxamide]
9 | 101 to 500 | CC1CCCN(c2nc(C(F)(F)F)c(C(=O)Nc3ccc(-c4ccc(C(=O)O)nc4)cc3)o2)C1 (centres unmarked) [Compound 229, 5-(4-(2-(3-methylpiperidin-1-yl)-4-(trifluoromethyl)oxazole-5-carboxamido)phenyl)picolinic acid]
10 | 101 to 500 | CC1CCCN(c2nc(C(F)(F)F)c(C(=O)Nc3ccc(N4CCN(C(=O)Nc5ccccc5F)C[C@@H]4C)nc3)o2)C1 (stereo partly drawn) [Compound 315, N-(6-((S)-4-(2-fluorophenylcarbamoyl)-2-methylpiperazin-1-yl)pyridin-3-yl)-2-(3-methylpiperidin-1-yl)-4-(trifluoromethyl)oxazole-5-carboxamide]
11 | 11 to 100 | CN(CCc1ccccc1)c1nc(C(F)(F)F)c(C(=O)Nc2ccc(N3CCN(C(=O)Nc4ccccc4F)CC3)nc2)o1 [Compound 316, N-(6-(4-(2-fluorophenylcarbamoyl)piperazin-1-yl)pyridin-3-yl)-2-(methyl(phenethyl)amino)-4-(trifluoromethyl)oxazole-5-carboxamide]
12 | 101 to 500 | CC1CCCN(c2nc(C(F)(F)F)c(C(=O)Nc3ccc(N[C@H]4CCN(C(=O)c5ccccc5F)C4)nc3)o2)C1 (stereo partly drawn) [Compound 260, N-(6-((S)-1-(2-fluorobenzoyl)pyrrolidin-3-ylamino)pyridin-3-yl)-2-(3-methylpiperidin-1-yl)-4-(trifluoromethyl)oxazole-5-carboxamide]
13 | 11 to 100 | Cc1ccccc1NC(=O)c1ccc(-c2ccc(NC(=O)c3oc(N4CCCC(C)C4)nc3C(F)(F)F)cn2)cc1 (centres unmarked) [Compound 333, 2-(3-methylpiperidin-1-yl)-N-(6-(4-(o-tolylcarbamoyl)phenyl)pyridin-3-yl)-4-(trifluoromethyl)oxazole-5-carboxamide]
14 | 11 to 100 | CN(CC1(c2ccccc2)CC1)c1nc(C(F)(F)F)c(C(=O)Nc2ccc(N3CCN(C(=O)Nc4ccccc4F)CC3)nc2)o1 [Compound 317, N-(6-(4-(2-fluorophenylcarbamoyl)piperazin-1-yl)pyridin-3-yl)-2-(methyl((1-phenylcyclopropyl)methyl)amino)-4-(trifluoromethyl)oxazole-5-carboxamide]
15 | 101 to 500 | O=C(O)C[C@H]1CC[C@H](c2ccc(NC(=O)c3oc(N4CCC(c5ccccc5)CC4)nc3C(F)(F)F)cc2)CC1 [Compound 216, 2-((1r,4r)-4-(4-(2-(4-phenylpiperidin-1-yl)-4-(trifluoromethyl)oxazole-5-carboxamido)phenyl)cyclohexyl)acetic acid]
16 | 101 to 500 | CC1CCCN(c2nc(C(F)(F)F)c(C(=O)Nc3ccc(-c4ccc(C(=O)N5CCC(C(=O)O)CC5)cn4)cc3)o2)C1 (centres unmarked) [Compound 251, 1-(6-(4-(2-(3-methylpiperidin-1-yl)-4-(trifluoromethyl)oxazole-5-carboxamido)phenyl)nicotinoyl)piperidine-4-carboxylic acid]
17 | 101 to 500 | O=C(CN1CCN(c2ccc(NC(=O)c3oc(N4CCC(c5ccccc5)CC4)nc3C(F)(F)F)cn2)CC1)c1ccccc1F [Compound 289, N-(6-(4-(2-(2-fluorophenyl)-2-oxoethyl)piperazin-1-yl)pyridin-3-yl)-2-(4-phenylpiperidin-1-yl)-4-(trifluoromethyl)oxazole-5-carboxamide]
18 | 11 to 100 | O=C(Nc1ccc(N2CCN(C(=O)Nc3ccccc3F)CC2)nc1)c1oc(N2CCC(c3cccc(F)c3)C2)nc1C(F)(F)F (centres unmarked) [Compound 279, 2-(3-(3-fluorophenyl)pyrrolidin-1-yl)-N-(6-(4-(2-fluorophenylcarbamoyl)piperazin-1-yl)pyridin-3-yl)-4-(trifluoromethyl)oxazole-5-carboxamide]
19 | 101 to 500 | CN(Cc1nc(C(F)(F)F)c(C(=O)Nc2ccc(N3CCN(C(=O)Nc4ccccc4F)CC3)nc2)s1)c1ccccc1 [Compound 247, N-(6-(4-(2-fluorophenylcarbamoyl)piperazin-1-yl)pyridin-3-yl)-2-((methyl(phenyl)amino)methyl)-4-(trifluoromethyl)thiazole-5-carboxamide]
20 | 101 to 500 | O=C(Nc1ccc(N2CCN(C(=O)Nc3ccccc3F)CC2)nc1)c1oc(NC2CCN(Cc3ccccc3)C2)nc1C(F)(F)F (centres unmarked) [Compound 307, 2-(1-benzylpyrrolidin-3-ylamino)-N-(6-(4-(2-fluorophenylcarbamoyl)piperazin-1-yl)pyridin-3-yl)-4-(trifluoromethyl)oxazole-5-carboxamide]
